According to patent publication US9085536B2, “Aconitine compounds, compositions, uses, and preparation thereof” (priority 2011, dated 2015):
Read-outs that look alike come from different tables or passages of the source.

How the values were obtained:
[1] = molecular target: T1, rNaV1.4 expressed in CHO cells (Rattus norvegicus, UniProt P15390); assay: Na+ current block at steady state, whole-cell patch clamp with pulse trains; assay type: cell-based; conditions: for depolarizing pulses required to reach steady-state block: 10 Hz pulse trains
T1 construct: expressed in transfected cells; host or cells: CHO cells
T1 sequence (P15390 whole entry): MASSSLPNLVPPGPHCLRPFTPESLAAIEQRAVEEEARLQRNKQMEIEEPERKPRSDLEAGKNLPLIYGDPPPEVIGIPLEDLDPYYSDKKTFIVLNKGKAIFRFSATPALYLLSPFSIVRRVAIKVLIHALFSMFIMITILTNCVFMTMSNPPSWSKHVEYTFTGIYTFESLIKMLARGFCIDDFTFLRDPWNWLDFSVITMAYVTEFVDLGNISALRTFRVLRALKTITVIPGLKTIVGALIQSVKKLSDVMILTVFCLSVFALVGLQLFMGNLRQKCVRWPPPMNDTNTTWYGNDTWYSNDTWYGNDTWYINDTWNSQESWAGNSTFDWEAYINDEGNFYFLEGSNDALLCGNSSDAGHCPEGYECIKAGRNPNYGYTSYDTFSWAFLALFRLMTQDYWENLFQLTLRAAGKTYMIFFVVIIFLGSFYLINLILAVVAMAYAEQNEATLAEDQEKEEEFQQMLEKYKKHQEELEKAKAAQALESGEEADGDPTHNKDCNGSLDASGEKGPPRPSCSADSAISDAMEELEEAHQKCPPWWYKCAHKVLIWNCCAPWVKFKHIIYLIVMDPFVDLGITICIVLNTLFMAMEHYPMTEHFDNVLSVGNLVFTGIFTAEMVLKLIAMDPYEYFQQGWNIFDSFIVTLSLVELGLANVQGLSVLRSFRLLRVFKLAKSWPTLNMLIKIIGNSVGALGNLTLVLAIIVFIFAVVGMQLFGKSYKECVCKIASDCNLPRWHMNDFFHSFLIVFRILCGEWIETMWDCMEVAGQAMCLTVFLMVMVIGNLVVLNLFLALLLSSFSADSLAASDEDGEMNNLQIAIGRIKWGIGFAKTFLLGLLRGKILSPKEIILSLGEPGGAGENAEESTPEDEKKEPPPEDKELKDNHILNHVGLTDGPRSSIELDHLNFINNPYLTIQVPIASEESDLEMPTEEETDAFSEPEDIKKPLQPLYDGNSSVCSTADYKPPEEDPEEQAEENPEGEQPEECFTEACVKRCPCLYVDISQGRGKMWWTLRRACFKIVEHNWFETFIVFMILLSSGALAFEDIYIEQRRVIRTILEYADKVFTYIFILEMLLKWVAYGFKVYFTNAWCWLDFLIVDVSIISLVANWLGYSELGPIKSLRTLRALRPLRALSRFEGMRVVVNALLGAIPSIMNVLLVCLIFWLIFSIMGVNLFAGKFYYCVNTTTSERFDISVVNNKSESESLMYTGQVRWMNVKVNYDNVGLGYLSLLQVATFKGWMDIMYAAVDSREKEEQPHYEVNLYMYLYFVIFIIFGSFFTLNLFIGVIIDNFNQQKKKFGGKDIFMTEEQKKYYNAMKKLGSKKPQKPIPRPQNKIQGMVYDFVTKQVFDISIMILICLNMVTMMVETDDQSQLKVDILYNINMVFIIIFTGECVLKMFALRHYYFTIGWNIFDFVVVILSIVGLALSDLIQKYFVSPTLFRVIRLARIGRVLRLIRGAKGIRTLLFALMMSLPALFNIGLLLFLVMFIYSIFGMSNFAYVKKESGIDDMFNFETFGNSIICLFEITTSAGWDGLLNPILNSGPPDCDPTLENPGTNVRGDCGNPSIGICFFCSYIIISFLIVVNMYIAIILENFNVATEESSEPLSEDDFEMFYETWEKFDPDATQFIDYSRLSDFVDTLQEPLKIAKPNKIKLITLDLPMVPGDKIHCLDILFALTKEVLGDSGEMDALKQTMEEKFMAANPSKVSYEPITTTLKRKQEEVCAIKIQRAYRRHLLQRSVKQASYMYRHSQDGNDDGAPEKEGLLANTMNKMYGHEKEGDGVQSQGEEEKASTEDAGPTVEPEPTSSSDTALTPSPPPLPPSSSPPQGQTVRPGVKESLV
Protocol: Binding of aconitine to NaV is use-dependent and is known to result both in a left shift of the current-voltage (I-V) relationship and in partial block of the channel. […] To determine whether aconitine binding is reversible, two experiments were designed. First, as block by aconitine is known to be use dependent, peak current was measured as a function of pulse number in the presence of two different concentrations of aconitine. Since aconitine binds preferentially to the open state of the sodium channel, a pulse train was applied sequentially with a control pulse used to record peak current. The pulse train consisted of a series of 50 depolarizing pulses (from −100 mV holding potential to 0 mV, 10 ms duration) applied at 10 Hz frequency, while the control pulse consisted of a single depolarizing pulse (from −100 mV holding potential to 0 mV test potential, 10 ms duration).
Pulse trains of 10 Hz frequency and control pulses were applied sequentially to cells expressing rNaV1.4, and currents elicited from the control pulse were recorded after each pulse train. This process was repeated until the current elicited from the control pulse had reached a steady state and was no longer decreasing with each additional pulse train. If block were irreversible, this steady state current would be expected to be independent of toxin concentration—the toxin would not be able to dissociate from its receptor, and the number of toxin molecules is much greater than the number of sodium channels (assuming a 100 μL chamber containing 1000 CHO cells, each expressing 10,000 sodium channels, at 50 μM concentration toxin molecules outnumber receptors by a factor of 3×10^8:1), therefore, all receptors would eventually reach the bound state.
Block by aconitine is known to be use-dependent, therefore the use-dependence of the C14 derivatives of aconitine was evaluated. Peak Na current was measured as a function of pulse number in the presence of different concentrations of the molecules. […] Since aconitine binds preferentially to the open state of the sodium channel, a pulse train was applied sequentially with a control pulse used to record peak current. The pulse train consisted of a series of 50 depolarizing pulses (from −100 mV holding potential to 0 mV, 10 ms duration) applied at 10 Hz frequency, while the control pulse consisted of a single depolarizing pulse (from −100 mV holding potential to 0 mV test potential, 10 ms duration).
Pulse trains of 10 Hz frequency and control pulses were applied sequentially to CHO cells expressing rNaV1.4, and currents elicited from the control pulse were recorded after each pulse train. This process was repeated until the current elicited from the control pulse had reached a steady state and was no longer decreasing with each additional pulse train. If block were irreversible, this steady state current would be expected to be independent of toxin concentration—the toxin would not be able to dissociate from its receptor, and the number of toxin molecules is much greater than the number of sodium channels, therefore, all receptors would eventually reach the bound state.
The ability of the synthesized aconitine derivatives to block NaV channels was evaluated with patch-clamp experiments in the whole-cell configuration on CHO cells expressing rNaV1.4 heterologously. A buffer solution containing the toxin was applied to the cells, whole-cell Na^+ currents were recorded until the decreasing current reached a steady-state (300 to 3000 pulses, depending on the molecules and concentrations). The peak Na^+ currents were measured with a depolarizing test pulse (from −100 mV holding potential to 0 mV test potential, 10 ms duration).

[2] = molecular target: T1, rNaV1.4 expressed in CHO cells; assay type: cell-based
Protocol: […] […] It is noteworthy that little or no increase in current was observed during wash off when no depolarizing pulses were applied and peak current was measured as a function of time.
Since the molecules bind to the open-state of the Nav channel their release also requires activation pulses. In typical experiments, buffered external solution was perfused and a pulse train sequence was applied to the patch-clamp until the current reached a steady-state for at least two minutes.

[3] = molecular target: T1, rNaV1.4 expressed in CHO cells; assay: Activation: current-voltage (I-V) and conductance-voltage (G-V) relationship, whole-cell recording; assay type: cell-based; conditions: 50 μM
Protocol: To determine if the shift in I-V relationship is affected by the aromaticity of the aconitine C14 benzoate, current-voltage relationships were recorded for control cells expressing NaV, those that had been modified by aconitine, and those that had been modified by aconitine C14-cyclohexanoate 4.8d. For the modified channels, solutions of 50 μM concentration of the respective toxins were perfused onto the cells, and then depolarizing pulses were applied until a steady state current was observed, generally requiring about 1000 pulses. At that time, current-voltage relationships were again recorded. […] A shift towards hyperpolarizing potentials is clearly observed in both cases. Currents recorded at −50 mV are highlighted for all three experiments.
To determine the effect on current-voltage (I-V) relationship of the aconitine derivatives, whole cell currents were recorded in cells expressing NaV in the presence of aconitine derivatives. Control I-V plots were recorded with unmodified NaV1.4, to which were compared NaV channels modified by aconitine as well as by selected analogs. For the modified channels, solutions of the respective toxins were perfused onto the cells, and then depolarizing pulses were applied until a steady state current was observed, generally requiring about 1000 pulses. A sequence of test pulses was then recorded to determine the current-voltage relationships (using a step protocol in which CHO cells were depolarized for 10 ms from a holding potential of −100 mV to a range of potentials from −95 mV to +30 mV in 5 or 10 mV increments; peak currents were normalized to the maximum peak current and plotted against voltage).

[4] = molecular target: T1, rNaV1.4 expressed in CHO cells; assay: Steady-state inactivation, whole-cell recording, Boltzmann fit; assay type: cell-based
Protocol: . The channels were modified by perfusing the cells with buffered solution containing aconitine at the given concentrations and then simple pulses (10 ms pulses to 0 mV from −100 mV holding potential) were recorded until the currents leveled to a steady value (typically ˜1000 pulses). Steady-state fast inactivation of the current was then determined by delivering 500 ms conditioning pulses to potentials ranging from −130 to −11 mV (7 my increments) immediately followed by a 10 ms test pulse to 0 mV to test the available current. The peak current measured during the test pulse was normalized to the maximum peak current recorded in the conditioning pulses. […] Midpoint voltage V0.5 represents the membrane potential at which half maximum current is observed; slope factor at midpoint k quantifies the rate at which the inactivation response occurs.

[5] = total dose; cited from earlier work

Q: With `CCN1CC2(COC)C3C(OC)C4C1C3(C1C[C@@]3(O)[C@H](OC(=O)c5ccccc5)[C@@H]1[C@]4(OC(C)=O)[C@@H](O)[C@@H]3OC)[C@@H](OC)C[C@H]2O` (some centres unmarked) [Aconitine, aconitine] as the compound, how does the “peak current blocked at steady state” value [1] read?
A: The value was 40%.

Q: What about the “% Remaining current after reaching steady-state binding” value (from here on “% Remaining current”) ([1]; 5 μM) of the same compound?
A: Its value is 40%.

Q: What about the “% Remaining current” value ([1]; 20 μM) of the same compound?
A: The value was 19%.

Q: And the “peak current blocked at steady state” value ([1]; 20 μM)?
A: The value was 81%.

Q: What about the “Current measured at 20 μM (%)” value ([1]; 20 μM, before wash-off) of the same compound?
A: Its value is 19%.

Q: What about the “depolarizing pulses required to reach steady-state block” value (“depolarizing pulses required” for short) ([1]; 20 μM) of the same compound?
A: Its value is “around 600 pulses”.

Q: What about the “% Remaining current” value ([1]; 50 μM) of the same compound?
A: Its value is 13%.

Q: What about the “peak current blocked at steady state” value ([1]; 50 μM) of the same compound?
A: Its value is 83%.

Q: And the “depolarizing pulses required” value ([1]; 50 μM)?
A: The value was “approximately 800 pulses”.

Q: What about the “% Remaining current” value ([1]; 50 μM, listed as aconitine) of the same compound?
A: The value was 15%.

Q: What about the “% Remaining current” value ([1]; 75 μM) of the same compound?
A: The value was 13%.

Q: What about the “peak current blocked at steady state” value ([1]; 75 μM) of the same compound?
A: Its value is 87%.

Q: And the “Current measured at 75 μM (%)” value ([1]; 75 μM, before wash-off)?
A: Its value is 13%.

Q: And the “depolarizing pulses required” value ([1]; 75 μM)?
A: The value was 800 pulses.

Q: What about the “% Remaining current” value ([1]; 200 μM) of the same compound?
A: Its value is 5%.

Q: And the “peak current blocked at steady state” value ([1]; 200 μM)?
A: Its value is “approximately 94%”.

Q: What about the “depolarizing pulses required” value ([1]; 200 μM) of the same compound?
A: Its value is 300 pulses.

Q: And the “depolarizing pulses required” value ([1]; 5 (unit not printed))?
A: Its value is “over 2500 pulses”.

Q: And the “current restoration during wash off” value ([2]; after 200 μM and 1000 depolarizing pulses, toxin-free buffer with pulses)?
A: Its value is “significant current restoration”.

Q: What about the “Current after wash-off (%)” value ([2]; after wash-off of 20 μM) of the same compound?
A: Its value is 94%.

Q: What about the “Current after wash-off (%)” value ([2]; after wash-off of 75 μM) of the same compound?
A: The value was 62%.

Q: And the “Activation V0.5 (mV)” value [3]?
A: The value was −40.3 mV.

Q: And the Activation hg [3]?
A: The Activation hg was 10.4.

Q: And the “membrane potential at which maximum inward Na current occurs” value [3]?
A: The value was “around −10 mV”.

Q: And the “current at −50 mV” value ([3]; after about 1000 pulses, no current in control cells)?
A: Its value is “substantial currents”.

Q: What about the “Steady-state inactivation V0.5 (mV)” value ([4]; 5 μM) of the same compound?
A: Its value is −65.1 mV.

Q: What about the “Steady-state inactivation k (slope factor at midpoint)” value ([4]; 5 μM) of the same compound?
A: The value was 6.50.

Q: And the “Steady-state inactivation V0.5 (mV)” value ([4]; 50 μM)?
A: Its value is −65 mV.

Q: What about the “Steady-state inactivation k (slope factor at midpoint)” value ([4]; 50 μM) of the same compound?
A: The value was 5.97.

Q: And the “Steady-state inactivation V0.5 (mV)” value ([4]; 200 μM)?
A: The value was −82.4 mV.

Q: What about the “Steady-state inactivation k (slope factor at midpoint)” value ([4]; 200 μM) of the same compound?
A: Its value is 21.0.

Q: What about the “lethal doses in humans, estimated” value [5] of the same compound?
A: Its value is 1 to 5 mg.
